Laboratory results published in ChEMBL document CHEMBL1127134, “Synthesis and antibacterial activity of (1R,5R,6R)-2-tert-butyl-6-(1-hydroxyethyl)oxapenem-3-carboxylic acid” (1993).

Tests used:
Format in all cases: functional
Klebsiella [1] = test: Minimum inhibitory concentration required for the antibacterial activity against Klebsiella 57USA
Bacteroides fragilis [2] = test: Minimum inhibitory concentration required for the antibacterial activity against Bacillus fragilis Kr II
Providencia sp. = test: Minimum inhibitory concentration required for the antibacterial activity against Providencia 12012
Staphylococcus aureus [3] = test: Minimum inhibitory concentration required for the antibacterial activity against Staphylococcus aureus 41h Belgium
Anaerococcus prevotii = test: Minimum inhibitory concentration required for the antibacterial activity against Peptococcus prevotii DSM 20548
Serratia [4] = test: Minimum inhibitory concentration required for the antibacterial activity against Serratia 16002
[5] = system: Peptostreptococcus anaerobius; test: Minimum inhibitory concentration required for the antibacterial activity against Peptostrept. anaer. DSM 20357
Staphylococcus aureus [6] = test: Minimum inhibitory concentration required for the antibacterial activity against Staphylococcus aureus 13N Munchen
Proteus vulgaris [7] = test: Minimum inhibitory concentration required for the antibacterial activity against Proteus vulgaris 1017
Providencia rettgeri = test: Minimum inhibitory concentration required for the antibacterial activity against Proteus rettgeri 1007
Pseudomonas aeruginosa [8] = test: Minimum inhibitory concentration required for the antibacterial activity against Pseudomonas aeruginosa Walter
Proteus vulgaris [9] = test: Minimum inhibitory concentration required for the antibacterial activity against Proteus vulgaris 9023
Clostridium septicum = test: Minimum inhibitory concentration required for the antibacterial activity against Clostridium septicum
Staphylococcus aureus [10] = test: Minimum inhibitory concentration required for the antibacterial activity against Staphylococcus aureus 25697
Bacteroides fragilis [11] = test: Minimum inhibitory concentration required for the antibacterial activity against Bacillus fragilis 4661 Kr
Bacteroides fragilis [12] = test: Minimum inhibitory concentration required for the antibacterial activity against Bacillus fragilis ES 25
Clostridium perfringens [13] = test: Minimum inhibitory concentration required for the antibacterial activity against Clostridium perfringens 24071
Bacteroides fragilis [14] = test: Minimum inhibitory concentration required for the antibacterial activity against Bacillus fragilis 2034/35 Kr 43
Bacteroides fragilis [15] = test: Minimum inhibitory concentration required for the antibacterial activity against Bacillus fragilis 010848
Phocaeicola vulgatus = test: Minimum inhibitory concentration required for the antibacterial activity against Bacillus valgatus Kr III
Staphylococcus aureus [16] = test: Minimum inhibitory concentration required for the antibacterial activity against Staphylococcus aureus 17N Munchen
Escherichia coli [17] = test: Minimum inhibitory concentration required for the antibacterial activity against Escherichia coli T7
Staphylococcus aureus [18] = test: Minimum inhibitory concentration required for the antibacterial activity against Staphylococcus aureus 25085
Escherichia coli [19] = test: Minimum inhibitory concentration required for the antibacterial activity against Escherichia coli T A261
Serratia [20] = test: Minimum inhibitory concentration required for the antibacterial activity against Serratia 16001
Staphylococcus aureus [21] = test: Minimum inhibitory concentration required for the antibacterial activity against Staphylococcus aureus 86 Innsbruck
Staphylococcus aureus [22] = test: Minimum inhibitory concentration required for the antibacterial activity against Staphylococcus aureus 79B Innsbruck
Staphylococcus = test: Minimum inhibitory concentration required for the antibacterial activity against Staphylococcus E 25485
Staphylococcus aureus [23] = test: Minimum inhibitory concentration required for the antibacterial activity against Staphylococcus aureus 25768
Bacteroides fragilis [24] = test: Minimum inhibitory concentration required for the antibacterial activity against Bacillus fragilis DSM 2151
Clostridium perfringens [25] = test: Minimum inhibitory concentration required for the antibacterial activity against Clostridium perfringens DSM 756
Klebsiella [26] = test: Minimum inhibitory concentration required for the antibacterial activity against Klebsiella 6097
[27] = system: Parabacteroides distasonis; test: Minimum inhibitory concentration required for the antibacterial activity against Bacillus distasonis Heidelberg
Escherichia coli [28] = test: Minimum inhibitory concentration required for the antibacterial activity against Escherichia coli Neumann
Bacteroides fragilis [29] = test: Minimum inhibitory concentration required for the antibacterial activity against Bacillus fragilis 4891/91 Kr
Clostridium butyricum = test: Minimum inhibitory concentration required for the antibacterial activity against Clostridium butyricum
Enterococcus [30] = test: Minimum inhibitory concentration required for the antibacterial activity against Enterococcus 27158
Staphylococcus aureus [31] = test: Minimum inhibitory concentration required for the antibacterial activity against Staphylococcus aureus 1756
Pseudomonas aeruginosa [32] = test: Minimum inhibitory concentration required for the antibacterial activity against Pseudomonas aeruginosa 7451
Staphylococcus aureus [33] = test: Minimum inhibitory concentration required for the antibacterial activity against Staphylococcus aureus 25463
Bacteroides ovatus = test: Minimum inhibitory concentration required for the antibacterial activity against Bacillus ovatus Heidelberg 32
Bacteroides fragilis [34] = test: Minimum inhibitory concentration required for the antibacterial activity against Bacillus fragilis Kr 1 TV
Escherichia coli [35] = test: Minimum inhibitory concentration required for the antibacterial activity against Escherichia coli 183/58
Fusobacterium nucleatum = test: Minimum inhibitory concentration required for the antibacterial activity against Fusobacterium nucleatum DSM 20482
Bacteroides fragilis [36] = test: Minimum inhibitory concentration required for the antibacterial activity against Bacillus fragilis 06688
Staphylococcus aureus [37] = test: Minimum inhibitory concentration required for the antibacterial activity against Staphylococcus aureus 21b Belgium
[38] = system: Bacteroides thetaiotaomicron; test: Minimum inhibitory concentration required for the antibacterial activity against Bacillus thetaiotaomicron DSM 2079
Staphylococcus aureus [39] = test: Minimum inhibitory concentration required for the antibacterial activity against Staphylococcus aureus 4978 Israel
Escherichia coli [40] = test: Minimum inhibitory concentration required for the antibacterial activity against Escherichia coli F14
[41] = system: Peptostreptococcus anaerobius; test: Minimum inhibitory concentration required for the antibacterial activity against Peptostrept. anaer. Kr I
Staphylococcus aureus [42] = test: Minimum inhibitory concentration required for the antibacterial activity against Staphylococcus aureus 133
Thomasclavelia ramosa = test: Minimum inhibitory concentration required for the antibacterial activity against Clostridium ramosum DSM 1402
Staphylococcus aureus [43] = test: Minimum inhibitory concentration required for the antibacterial activity against Staphylococcus aureus 25455
Enterococcus [44] = test: Minimum inhibitory concentration required for the antibacterial activity against Enterococcus 9790
Staphylococcus aureus [45] = test: Minimum inhibitory concentration required for the antibacterial activity against Staphylococcus aureus 90 Innsbruck
Bacteroides fragilis [46] = test: Minimum inhibitory concentration required for the antibacterial activity against Bacillus fragilis 1560 I/82
[47] = system: Parabacteroides distasonis; test: Minimum inhibitory concentration required for the antibacterial activity against Bacillus distasonis Kr
[48] = system: Bacteroides thetaiotaomicron; test: Minimum inhibitory concentration required for the antibacterial activity against Bacillus thetaiotaomicron 235 Munchen
Clostridium perfringens [49] = test: Minimum inhibitory concentration required for the antibacterial activity against Clostridium perfringens 1024027
Pseudomonas aeruginosa [50] = test: Minimum inhibitory concentration required for the antibacterial activity against Pseudomonas aeruginosa 7053
Micrococcus luteus = test: Minimum inhibitory concentration required for the antibacterial activity against Micrococcus luteus
Escherichia coli [51] = test: Minimum inhibitory concentration required for the antibacterial activity against Escherichia coli 4322
Enterococcus faecalis = test: Minimum inhibitory concentration required for the antibacterial activity against Streptococcus faecalis 113
Clostridium perfringens [52] = test: Minimum inhibitory concentration required for the antibacterial activity against Clostridium perfringens 24072
Streptococcus pneumoniae = test: Minimum inhibitory concentration required for the antibacterial activity against Streptococcus pneumoniae 4959
[53] = system: Peptostreptococcus anaerobius; test: Minimum inhibitory concentration required for the antibacterial activity against Peptostrept. anaer. Kr II

**Q.** What does the source list for `C[C@@H](O)[C@H]1C(=O)N2C(C(=O)[O-])=C(C(C)(C)C)O[C@H]12.[K+]`?
**A.** MIC (Klebsiella [1]): 4 µg/mL; MIC (Bacteroides fragilis [2]): 2 µg/mL; MIC (Providencia sp.): 4 µg/mL; MIC (Staphylococcus aureus [3]): 12.5 µg/mL; MIC (Anaerococcus prevotii): 2 µg/mL; MIC (Serratia [4]): 64 µg/mL; MIC [5]: 1 µg/mL; MIC (Staphylococcus aureus [6]): 1.56 µg/mL; MIC (Proteus vulgaris [7]): 1 µg/mL; MIC (Providencia rettgeri): 2 µg/mL; MIC (Pseudomonas aeruginosa [8]): > 128 µg/mL; MIC (Proteus vulgaris [9]): 1 µg/mL; MIC (Clostridium septicum): 2 µg/mL; MIC (Staphylococcus aureus [10]): 1.56 µg/mL; MIC (Bacteroides fragilis [11]): 2 µg/mL; MIC (Bacteroides fragilis [12]): 2 µg/mL; MIC (Clostridium perfringens [13]): 0.5 µg/mL; MIC (Bacteroides fragilis [14]): 2 µg/mL; MIC (Bacteroides fragilis [15]): 2 µg/mL; MIC (Phocaeicola vulgatus): 1 µg/mL; MIC (Staphylococcus aureus [16]): 1.56 µg/mL; MIC (Escherichia coli [17]): 2 µg/mL; MIC (Staphylococcus aureus [18]): 1.56 µg/mL; MIC (Escherichia coli [19]): 2 µg/mL; MIC (Serratia [20]): 64 µg/mL; MIC (Staphylococcus aureus [21]): ≤ 0.78 µg/mL; MIC (Staphylococcus aureus [22]): ≤ 0.78 µg/mL; MIC (Staphylococcus): ≤ 0.06 µg/mL; MIC (Staphylococcus aureus [23]): ≤ 0.78 µg/mL; MIC (Bacteroides fragilis [24]): 1 µg/mL; MIC (Clostridium perfringens [25]): 1 µg/mL; MIC (Klebsiella [26]): 16 µg/mL; MIC [27]: 8 µg/mL; MIC (Escherichia coli [28]): 2 µg/mL; MIC (Bacteroides fragilis [29]): 2 µg/mL; MIC (Clostridium butyricum): 2 µg/mL; MIC (Enterococcus [30]): 16 µg/mL; MIC (Staphylococcus aureus [31]): 2 µg/mL; MIC (Staphylococcus aureus [31]; Staphylococcus aureus, read-out: MIC): 1.56 µg/mL; MIC (Pseudomonas aeruginosa [32]): > 128 µg/mL; MIC (Staphylococcus aureus [33]): 1.56 µg/mL; MIC (Bacteroides ovatus): 2 µg/mL; MIC (Bacteroides fragilis [34]): 2 µg/mL; MIC (Escherichia coli [35]): 1 µg/mL; MIC (Fusobacterium nucleatum): 0.5 µg/mL; MIC (Bacteroides fragilis [36]): 2 µg/mL; MIC (Staphylococcus aureus [37]): 12.5 µg/mL; MIC [38]: 1 µg/mL; MIC (Staphylococcus aureus [39]): ≤ 0.78 µg/mL; MIC (Escherichia coli [40]): 16 µg/mL; MIC [41]: 2 µg/mL; MIC (Staphylococcus aureus [42]): 0.12 µg/mL; MIC (Thomasclavelia ramosa): 1 µg/mL; MIC (Staphylococcus aureus [43]): 0.12 µg/mL; MIC (Enterococcus [44]): 2 µg/mL; MIC (Staphylococcus aureus [45]): ≤ 0.78 µg/mL; MIC (Bacteroides fragilis [46]): 2 µg/mL; MIC [47]: 1 µg/mL; MIC [48]: 4 µg/mL; MIC (Clostridium perfringens [49]): 1 µg/mL; MIC (Pseudomonas aeruginosa [50]): > 128 µg/mL; MIC (Micrococcus luteus): ≤ 0.06 µg/mL; MIC (Escherichia coli [51]): 2 µg/mL; MIC (Enterococcus faecalis): 16 µg/mL; MIC (Clostridium perfringens [52]): 0.5 µg/mL; MIC (Streptococcus pneumoniae): 0.25 µg/mL; MIC [53]: 0.25 µg/mL
